BindingDB's records for doi:10.1016/j.bmcl.2013.07.018 (Chungnam National University, 2013)

Test: Inhibition of Fas-mediated cell death in oxygen and glucose deprived rat H9c2 cells treated 30 mins before oxygen and glucose deprivation measured after 6 hrs by DAPI staining

Row | SMILES | EC50 [nM]
1 | COC(=O)c1ccsc1NC(=O)CCSc1ccc(Br)cc1 | 589
2 | O=C(O)c1cc(Cl)ccc1NC(=O)C(Sc1ccc(Br)cc1)c1ccccc1 (stereo not drawn) | 2000
3 | COC(=O)c1oc2ccccc2c1NC(=O)CSc1ccc([N+](=O)[O-])cc1 | 575
4 | COC(=O)c1nn(CCc2ccccc2)cc1NC(=O)CCc1ccccc1 | 427
5 | COC(=O)c1ccc(Cl)cc1NC(=O)CSc1ccc(Br)cc1 | 955
6 | COC(=O)c1cc(OC)c(OC)cc1NC(=O)CCSc1ccccn1 | 1320
7 | COC(=O)c1sccc1NC(=O)CSc1ccc(OC)cc1 | 871
8 | COc1cc(NC(=O)CSc2ccc(Br)cc2)c(C2=NCCO2)cc1OC | 955
9 | COC(=O)c1sccc1NC(=O)CN(C)c1ccccc1 | 661
10 | O=C(CSc1ccc(Br)cc1)Nc1c(Br)cc(Br)cc1C(=O)O | 1230
11 | COC(=O)c1nn(CCc2ccccc2)cc1NC(=O)COc1ccc(Br)cc1 | 355
12 | COC(=O)c1c(NC(=O)CSc2ccccc2N)cnn1CCc1ccccc1 | 513
13 | COC(=O)c1ccccc1NC(=O)CSc1ccccc1 | 562
14 | COC(=O)c1ccccc1NC(=O)CSc1ccccn1 [2-[[1-oxo-2-(2-pyridinylthio)ethyl]amino]benzoic acid methyl ester] | 692
15 | CN(C)C(=O)c1sccc1NC(=O)CSc1ccc(Br)cc1 | 851
16 | COC(=O)c1ccsc1NC(=O)CSc1ccc(Br)cc1 | 759
17 | COC(=O)c1cc(Br)cc(Br)c1NC(=O)CCSc1ccccn1 | 933
18 | COC(=O)c1sc2ccccc2c1NC(=O)CCSc1ccc(Br)cc1 | 724
19 | COC(=O)c1ccc(Cl)cc1NC(=O)CCSc1ccccn1 | 1020
20 | COC(=O)c1c(NC(=O)CSc2ccc([N+](=O)[O-])cc2)cnn1CCc1ccccc1 | 457
21 | COc1cc(C(=O)O)c(NC(=O)CCSc2ccccn2)c(OC)c1OC | 2090
22 | COC(=O)c1sc2ccccc2c1NC(=O)CSc1ccccc1 | 692

Row | SMILES | EC50 [nM]
23 | O=C(CSc1ccc(Br)cc1)Nc1c(C(=O)O)oc2ccccc12 | 724
24 | COC(=O)c1c(NC(=O)CSc2cccc(OC)c2)cnn1CCc1ccccc1 | 437
25 | COC(=O)c1oc2cccc(Cl)c2c1NC(=O)CSc1ccccn1 | 646
26 | O=C(CCSc1ccccn1)Nc1cc(Cl)ccc1C1=NCCO1 | 1740
27 | COC(=O)c1sc2ncccc2c1NC(=O)CCSc1ccccn1 | 490
28 | COC(=O)c1sccc1NC(=O)CSc1ccccc1 | 794
29 | COC(=O)c1oc2cccc(Cl)c2c1NC(=O)CCSc1ccccn1 | 631
30 | COC(=O)c1sccc1NC(=O)CCSc1ccccc1 | 501
31 | COC(=O)c1sccc1NC(=O)CSc1cccc(OC)c1 | 575
32 | COC(=O)c1c(NC(=O)CSc2ccc(Br)cc2)cnn1CCc1ccccc1 | 513
33 | COC(=O)c1sccc1NC(=O)CSc1ccc(Br)cc1 | 427
34 | COC(=O)c1oc2ccccc2c1NC(=O)COc1ccc(Br)cc1 | 1050
35 | O=C(CSc1ccc(Br)cc1)Nc1ccccc1C(=O)O | 2240
36 | COC(=O)c1oc2cccc(Cl)c2c1NC(=O)CSc1ccc(Br)cc1 | 1150
37 | COC(=O)c1oc2ccccc2c1NC(=O)CSc1ccc(Br)cc1 | 661
38 | COC(=O)c1sccc1NC(=O)CCSc1ccc(Br)cc1 | 1290
39 | COC(=O)c1cc(Br)cc(Br)c1NC(=O)C(Sc1ccc(Br)cc1)c1ccccc1 (stereo not drawn) | 1580
40 | COC(=O)c1sccc1NC(=O)COc1ccc(Br)cc1 | 891
41 | COC(=O)c1ccsc1NC(=O)CSc1ccccc1 | 724
42 | COC(=O)c1cc(OC)c(OC)c(OC)c1NC(=O)CCSc1ccccn1 | 1070
43 | Cc1csc(C(=O)O)c1NC(=O)CSc1ccc(Br)cc1 | 1120
